Experimental findings from ChEMBL document CHEMBL3044972, “Synthesis, anti-inflammatory, and cytotoxicity evaluation of 9,10-dihydroanthracene-9,10-,-succinimide and bis-succinimide derivatives” (2013) are described below.

Common to all, as to assay type: functional
For one test, the system named is T47D. Description: Cytotoxicity against Homo sapiens (human) T47D cells assessed as growth inhibition at 10 uM after 48 hr by SRB assay. As to conditions: read-out: GI.
Another test relates to PA-1. Description: Cytotoxicity against Homo sapiens (human) PA1 cells assessed as growth inhibition at 10 uM after 48 hr by SRB assay. The settings on record: PA-1, 48 h, read-out: GI. On the technique in general: Sulforhodamine B stains cellular protein and so reports cell mass.
A further test deals with HepG2. Put plainly: Cytotoxicity against Homo sapiens (human) HepG2 cells assessed as growth inhibition at 10 uM after 48 hr by SRB assay. As to conditions: HepG2, 48 h, read-out: GI.
A further test has as its system HCT-15. Description: Cytotoxicity against Homo sapiens (human) HCT15 cells assessed as growth inhibition at 10 uM after 48 hr by SRB assay. As to conditions: HCT-15, 48 h, read-out: GI.
A further test has as its system Rattus norvegicus. Description: Anti-inflammatory activity against albino Charles Foster Rattus norvegicus (rat) assessed as inhibition of carrageenan-induced paw edema at 50 mg/kg, po administered 30 min prior to carrageenan injection measured after 1-3 hr by plethysmometer. Details: scale not given: the % may be the effect or the level left.
The subject of a further test is NCI-H522. Description: Cytotoxicity against Homo sapiens (human) NCI-H522 cells assessed as growth inhibition at 10 uM after 48 hr by SRB assay. The settings on record: NCI-H522, 48 h, read-out: GI.

On to `O=C1C2C3c4ccccc4C(c4ccccc43)C2C(=O)N1CN1CCOCC1` (configuration not stated), for which the inhibition of growth at 10 µM in the test on T47D worked out at 20%; in the test on PA-1, 24%; with HepG2, 34%; in the test with HCT-15 it was 22%; in the test with NCI-H522, 24%. Besides, the Activity with Rattus norvegicus is listed as 39%.

On to `O=C1C2C3c4ccccc4C(c4ccccc43)C2C(=O)N1Cc1ccco1` (configuration not stated), for which the inhibition of growth at 10 µM is 40% in the test on T47D; 27% in the test on PA-1; 38% with HepG2; 15% in the test with HCT-15; 25% with NCI-H522. In the test with Rattus norvegicus, the Activity stood at 15%.

Take `O=C1C2C3c4ccccc4C(c4ccccc43)C2C(=O)N1Cc1ccccn1` (configuration not stated): the inhibition of growth at 10 µM in the test on T47D is 26%; in the test on PA-1, 47%; in the test on HepG2, 35%; with HCT-15 it was 7%; in the test on NCI-H522, 20%. Further, the Activity in the test on Rattus norvegicus stood at 14%.

Regarding `O=C1C2C3c4ccccc4C(c4ccccc43)C2C(=O)N1CC1CCCO1` (configuration not stated), the inhibition of growth at 10 µM with T47D amounted to 23%; in the test with PA-1, 31%; with HepG2 it was 55%; in the test with HCT-15 it was 22%; in the test on NCI-H522, 30%. Besides, in the test on Rattus norvegicus, the Activity came out at 34%.

Consider `O=C1C2C3c4ccccc4C(c4ccccc43)C2C(=O)N1CCN1CCNCC1` (configuration not stated), for which the Activity in the test with Rattus norvegicus came out at 31%.

In the case of `O=C1C2C3c4ccccc4C(c4ccccc43)C2C(=O)N1CC1CCNCC1` (configuration not stated), the inhibition of growth at 10 µM turned out to be 17% in the test on T47D; 26% in the test with PA-1; 32% in the test on HepG2; 11% in the test on HCT-15; 25% with NCI-H522. The Activity in the test with Rattus norvegicus is 35%.

On to `O=C1C2C3c4ccccc4C(c4ccccc43)C2C(=O)N1Cc1ccccc1` (configuration not stated), for which the inhibition of growth at 10 µM in the test with T47D was 22%; in the test with PA-1 it was 43%; in the test with HepG2 it was 52%; in the test with HCT-15, 12%; in the test with NCI-H522 it was 62%. Moreover, the Activity in the test with Rattus norvegicus was 37%.

Take `O=C1C2C3c4ccccc4C(c4ccccc43)C2C(=O)N1C1CC1` (configuration not stated): the inhibition of growth at 10 µM was 21% with T47D; 37% in the test with PA-1; 53% with HepG2; 19% with HCT-15; 24% in the test with NCI-H522. Besides, in the test with Rattus norvegicus, the Activity was found to be 23%.

In the case of `CC1(C)CC(N2C(=O)C3C4c5ccccc5C(c5ccccc54)C3C2=O)CC(C)(C)N1` (configuration not stated), the inhibition of growth at 10 µM in the test with T47D came to 10%; in the test with PA-1 it was 31%; in the test on HepG2, 40%; in the test on HCT-15 it was 20%; with NCI-H522 it was 15%. In the test with Rattus norvegicus, the Activity is listed as 32%.

With `O=C1C2C3c4ccccc4C(c4ccccc43)C2C(=O)N1Cc1ccncc1` (configuration not stated), the inhibition of growth at 10 µM in the test with T47D stood at 24%; with PA-1 it was 21%; in the test on HepG2, 61%; with HCT-15 it was 12%; in the test with NCI-H522 it was 27%. In the test on Rattus norvegicus, the Activity turned out to be 37%.

With `O=C1C2C3c4ccccc4C(c4ccccc43)C2C(=O)N1CCN1CCCC1` (configuration not stated), the inhibition of growth at 10 µM was found to be 7% in the test with T47D; 36% with PA-1; 47% in the test with HepG2; 14% in the test with HCT-15; 13% with NCI-H522. Also, the Activity in the test with Rattus norvegicus was found to be 28%.

`O=C1C2C3c4ccccc4C(c4ccccc43)C2C(=O)N1CCN1CCCCC1` (configuration not stated): the inhibition of growth at 10 µM was 20% with T47D; 25% in the test on PA-1; 38% with HepG2; 6% in the test on HCT-15; 23% in the test with NCI-H522. Further, the Activity in the test on Rattus norvegicus is on record as 27%.

Take `O=C1CCCN1CCN1C(=O)C2C3c4ccccc4C(c4ccccc43)C2C1=O` (configuration not stated): the inhibition of growth at 10 µM was found to be 26% in the test on T47D; 33% in the test on PA-1; 41% with HepG2; 16% in the test with HCT-15; 15% with NCI-H522. For the same compound, in the test with Rattus norvegicus, the Activity is on record as 17%.

Consider `O=C1C2C3c4ccccc4C(c4ccccc43)C2C(=O)N1CCCn1ccnc1` (configuration not stated), for which the inhibition of growth at 10 µM with T47D was 28%; in the test with PA-1 it was 40%; with HepG2, 48%; in the test with HCT-15, 30%; with NCI-H522 it was 32%. The Activity with Rattus norvegicus turned out to be 27%.

Consider `O=C1C2C3c4ccccc4C(c4ccccc43)C2C(=O)N1Nc1ccccc1` (configuration not stated), for which the inhibition of growth at 10 µM was found to be 13% in the test on T47D; 46% in the test on PA-1; 52% in the test on HepG2; 11% with HCT-15; 52% with NCI-H522. The Activity in the test on Rattus norvegicus was found to be 11%.

Consider `O=C1C2C3c4ccccc4C(c4ccccc43)C2C(=O)N1Nc1ccccn1` (configuration not stated), for which the inhibition of growth at 10 µM in the test with T47D is 1%; in the test with PA-1, 13%; in the test with HepG2, 37%; in the test on HCT-15, 4%; with NCI-H522, 27%. Moreover, the Activity in the test on Rattus norvegicus was found to be 38%.

As for `O=C1C2C3c4ccccc4C(c4ccccc43)C2C(=O)N1CCN1C(=O)C2C3c4ccccc4C(c4ccccc43)C2C1=O` (configuration not stated), the inhibition of growth at 10 µM in the test with T47D is 5%; in the test on PA-1, 9%; in the test with HepG2 it was 29%; with HCT-15, 10%; with NCI-H522 it was 11%. Further, the Activity in the test with Rattus norvegicus stood at 20%.

Regarding `O=C1C2C3c4ccccc4C(c4ccccc43)C2C(=O)N1CCCN1C(=O)C2C3c4ccccc4C(c4ccccc43)C2C1=O` (configuration not stated), the inhibition of growth at 10 µM was found to be 24% in the test with T47D; 6% in the test with PA-1; 45% in the test with HepG2; 27% in the test with HCT-15; 17% in the test on NCI-H522. The Activity with Rattus norvegicus is recorded as 33%.

Regarding `O=C1C2C3c4ccccc4C(c4ccccc43)C2C(=O)N1CCCCN1C(=O)C2C3c4ccccc4C(c4ccccc43)C2C1=O` (configuration not stated), the inhibition of growth at 10 µM in the test with T47D stood at 19%; in the test with PA-1, 37%; in the test on HepG2, 25%; with HCT-15, 26%; in the test on NCI-H522 it was 23%. For the same compound, the Activity with Rattus norvegicus is 25%.

Consider `CC(CN1C(=O)C2C3c4ccccc4C(c4ccccc43)C2C1=O)N1C(=O)C2C3c4ccccc4C(c4ccccc43)C2C1=O` (configuration not stated), for which the inhibition of growth at 10 µM in the test with T47D worked out at 2%; with PA-1, 14%; in the test on HepG2 it was 41%; in the test on HCT-15 it was 9%; in the test on NCI-H522, 20%. For the same compound, the Activity in the test on Rattus norvegicus was 22%.

With `O=C1C2C3c4ccccc4C(c4ccccc43)C2C(=O)N1CCCN1CCN(CCCN2C(=O)C3C4c5ccccc5C(c5ccccc54)C3C2=O)CC1` (configuration not stated), the inhibition of growth at 10 µM in the test with T47D amounted to 33%; in the test with PA-1, 16%; in the test on HepG2 it was 33%; in the test with HCT-15 it was 10%; in the test on NCI-H522, 17%. Also, the Activity in the test on Rattus norvegicus is 15%.

With `C[C@@H]1C[C@@H]([C@H](O)CC2CC(=O)NC(=O)C2)C(=O)[C@@H](C)C1` [CYCLOHEXIMIDE], the inhibition of growth at 10 µM in the test with T47D came out at 9%; with PA-1, 32%; in the test on HepG2, 15%; in the test on HCT-15, 12%; in the test with NCI-H522, 13%.

In the case of `O=P1(N(CCCl)CCCl)NCCCO1` (configuration not stated) [CYCLOPHOSPHAMIDE ANHYDROUS], the inhibition of growth at 10 µM in the test with T47D worked out at 12%; in the test with PA-1 it was 15%; in the test on HepG2, 14%; in the test with HCT-15 it was 5%; with NCI-H522, 9%.

In the case of `O=c1[nH]cc(F)c(=O)[nH]1` [FLUOROURACIL], the inhibition of growth at 10 µM with T47D was found to be 10%; in the test with PA-1, 18%; in the test on HepG2, 28%; in the test on HCT-15 it was 15%; in the test on NCI-H522 it was 18%.

Consider `CC(C)Cc1ccc(C(C)C(=O)O)cc1` (configuration not stated) [IBUPROFEN], for which the Activity in the test on Rattus norvegicus is reported as 39%.
